Values quoted from earlier work in US20120107430A1, “PRE-PROCEDURE MEAL REGIMEN” (priority 2009, published 2012).

Legend:
colon [1] = settings: N=50 per arm; senna two doses 158 mg each, 8 hours apart; sodium phosphate 48 grams
colon [2] = settings: either diet (light breakfast then clear liquids, or normal breakfast, low residue lunch, then clear liquids); 200 patients

**Q.** Which “patients reporting good tolerance” value (colon [1]) does the source give for `O=P(O)(O)O` [sodium phosphate] here?
**A.** Its value is 28 patients.

**Q.** And the “patients reporting poor tolerance” value (colon [1])?
**A.** Its value is 12 patients.

**Q.** And the “good to excellent preparation” value (colon [2])?
**A.** Its value is 93-95%.
